Measured values reported in article PMC7584652 (Nature Communications, 2020).

Legend:
[1] = biological target: Gmk (Bacillus anthracis, UniProt Q81WG7); format: binding
[2] = biological target: T1, Rel (RelA) (Bacillus subtilis, UniProt O54408); experiment: […] TLC hydrolysis time course; format: biochemical; details: 200 nM enzyme, 100 μM substrate, 25 mM Tris-HCl pH 7.5, 1 mM MnCl2, 37 °C
T1 construct: purified

[3] = biological target: Xpt (Bacillus anthracis, UniProt Q81SQ5); details: labelled compound ([5′-α-32P]); 10 mM Tris pH 7.5, 100 mM NaCl, 5 mM MgCl2, room temperature
[4] = biological target: Hpt1 (Bacillus anthracis, UniProt A0A6L7HDS1); details: labelled compound ([5′-α-32P]); 10 mM Tris pH 7.5, 100 mM NaCl, 5 mM MgCl2, room temperature
[5] = biological target: T2, translation elongation factor G (EF-G) (Bacillus anthracis, UniProt Q81VT3); experiment: biochemical
T2 construct: gene fusA

[6] = biological target: Der (Bacillus anthracis, UniProt Q81SW9); details: labelled compound ([5′-α-32P]); 10 mM Tris pH 7.5, 100 mM NaCl, 5 mM MgCl2, room temperature
[7] = biological target: Obg (Bacillus anthracis, UniProt Q81LF0); experiment: biochemical
[8] = substrate: Nc1nc2c(ncn2[C@@H]2O[C@H](COP(=O)(O)OP(=O)(O)OP(=O)(O)O)[C@@H](OP(=O)(O)OP(=O)(O)O)[C@H]2O)c(=O)[nH]1; experiment: purified protein; details: 100 nM enzyme, 40 mM Tris-HCl pH 7.5, 100 mM NaCl, 10 mM MgCl2, 37 °C, cooperative, fitted with Hill equation
[9] = substrate: Nc1nc2c(ncn2[C@@H]2O[C@H](COP(=O)(O)OP(=O)(O)O)[C@@H](OP(=O)(O)OP(=O)(O)O)[C@H]2O)c(=O)[nH]1; experiment: purified protein; details: 100 nM enzyme, 40 mM Tris-HCl pH 7.5, 100 mM NaCl, 10 mM MgCl2, 37 °C, Hill n fixed to 1

Sequence of Obg (Q81LF0 whole entry, looked up): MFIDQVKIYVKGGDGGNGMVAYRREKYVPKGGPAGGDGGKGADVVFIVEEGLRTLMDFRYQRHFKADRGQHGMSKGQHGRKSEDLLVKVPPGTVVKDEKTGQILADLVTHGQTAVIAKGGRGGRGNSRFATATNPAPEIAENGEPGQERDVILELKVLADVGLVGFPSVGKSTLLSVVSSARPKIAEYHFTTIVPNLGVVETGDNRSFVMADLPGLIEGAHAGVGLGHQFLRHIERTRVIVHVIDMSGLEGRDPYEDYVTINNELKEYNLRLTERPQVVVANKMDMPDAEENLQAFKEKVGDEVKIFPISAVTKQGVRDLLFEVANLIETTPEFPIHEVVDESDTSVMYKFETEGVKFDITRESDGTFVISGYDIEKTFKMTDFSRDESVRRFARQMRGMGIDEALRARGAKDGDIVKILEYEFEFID
T1 sequence (O54408 whole entry): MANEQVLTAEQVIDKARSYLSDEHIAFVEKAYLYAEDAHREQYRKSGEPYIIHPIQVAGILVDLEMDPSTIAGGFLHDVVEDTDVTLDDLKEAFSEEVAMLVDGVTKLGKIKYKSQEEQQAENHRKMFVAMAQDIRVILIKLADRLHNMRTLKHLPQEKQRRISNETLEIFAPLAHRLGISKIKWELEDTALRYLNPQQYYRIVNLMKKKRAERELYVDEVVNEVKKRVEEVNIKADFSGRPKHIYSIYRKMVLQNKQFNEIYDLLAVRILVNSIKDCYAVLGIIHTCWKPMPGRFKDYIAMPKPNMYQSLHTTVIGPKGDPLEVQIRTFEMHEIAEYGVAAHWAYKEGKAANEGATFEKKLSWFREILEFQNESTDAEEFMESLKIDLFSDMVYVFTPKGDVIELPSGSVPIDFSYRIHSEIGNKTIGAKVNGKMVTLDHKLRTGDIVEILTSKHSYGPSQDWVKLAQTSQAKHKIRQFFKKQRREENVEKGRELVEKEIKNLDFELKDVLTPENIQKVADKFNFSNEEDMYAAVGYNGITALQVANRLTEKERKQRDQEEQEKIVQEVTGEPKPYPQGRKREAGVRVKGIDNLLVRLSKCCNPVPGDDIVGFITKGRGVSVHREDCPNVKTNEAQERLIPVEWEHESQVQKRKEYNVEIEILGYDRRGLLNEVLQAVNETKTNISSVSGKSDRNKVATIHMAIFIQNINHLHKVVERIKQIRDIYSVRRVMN
T2 sequence (Q81VT3 whole entry, looked up): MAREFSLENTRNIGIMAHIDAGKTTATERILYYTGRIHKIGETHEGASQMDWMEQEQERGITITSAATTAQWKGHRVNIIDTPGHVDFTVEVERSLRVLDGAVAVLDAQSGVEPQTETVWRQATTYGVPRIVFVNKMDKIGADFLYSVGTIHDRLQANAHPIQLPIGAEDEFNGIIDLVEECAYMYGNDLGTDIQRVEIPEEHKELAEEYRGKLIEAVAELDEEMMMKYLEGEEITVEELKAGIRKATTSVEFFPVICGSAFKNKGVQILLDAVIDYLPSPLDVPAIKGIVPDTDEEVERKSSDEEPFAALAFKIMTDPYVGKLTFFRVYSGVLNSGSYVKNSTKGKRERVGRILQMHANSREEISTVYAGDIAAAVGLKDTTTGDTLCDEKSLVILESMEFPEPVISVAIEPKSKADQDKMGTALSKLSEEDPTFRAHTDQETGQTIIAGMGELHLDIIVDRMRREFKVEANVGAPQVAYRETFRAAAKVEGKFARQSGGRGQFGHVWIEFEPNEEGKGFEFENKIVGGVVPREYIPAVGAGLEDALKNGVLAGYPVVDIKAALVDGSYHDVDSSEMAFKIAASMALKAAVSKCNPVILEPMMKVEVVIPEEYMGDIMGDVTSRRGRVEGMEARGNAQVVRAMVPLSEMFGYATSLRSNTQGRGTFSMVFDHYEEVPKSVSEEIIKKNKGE
Sequence of Der (Q81SW9 whole entry, looked up): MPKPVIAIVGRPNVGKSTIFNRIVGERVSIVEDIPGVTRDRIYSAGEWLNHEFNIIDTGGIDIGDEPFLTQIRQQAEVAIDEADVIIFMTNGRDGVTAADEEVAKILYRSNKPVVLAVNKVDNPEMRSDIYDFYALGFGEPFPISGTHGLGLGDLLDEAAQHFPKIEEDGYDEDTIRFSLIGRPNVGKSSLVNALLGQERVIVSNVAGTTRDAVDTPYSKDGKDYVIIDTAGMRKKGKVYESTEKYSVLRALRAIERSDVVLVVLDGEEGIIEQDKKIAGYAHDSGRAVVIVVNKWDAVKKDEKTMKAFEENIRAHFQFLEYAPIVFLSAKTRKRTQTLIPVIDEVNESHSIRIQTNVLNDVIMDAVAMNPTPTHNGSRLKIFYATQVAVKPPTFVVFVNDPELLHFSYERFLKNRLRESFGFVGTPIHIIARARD
Sequence of Gmk (Q81WG7 whole entry, looked up): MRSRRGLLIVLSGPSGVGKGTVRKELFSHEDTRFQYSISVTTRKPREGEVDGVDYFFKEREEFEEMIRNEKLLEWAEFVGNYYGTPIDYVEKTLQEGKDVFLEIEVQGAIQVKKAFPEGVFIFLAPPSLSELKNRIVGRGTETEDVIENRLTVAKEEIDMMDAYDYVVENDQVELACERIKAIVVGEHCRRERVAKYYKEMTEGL
Sequence of Hpt1 (A0A6L7HDS1 1-180): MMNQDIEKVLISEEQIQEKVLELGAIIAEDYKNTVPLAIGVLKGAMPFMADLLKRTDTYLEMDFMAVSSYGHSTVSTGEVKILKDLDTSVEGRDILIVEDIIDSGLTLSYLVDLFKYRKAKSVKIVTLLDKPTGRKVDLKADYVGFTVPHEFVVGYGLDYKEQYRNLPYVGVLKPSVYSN
Sequence of Xpt (Q81SQ5 whole entry, looked up): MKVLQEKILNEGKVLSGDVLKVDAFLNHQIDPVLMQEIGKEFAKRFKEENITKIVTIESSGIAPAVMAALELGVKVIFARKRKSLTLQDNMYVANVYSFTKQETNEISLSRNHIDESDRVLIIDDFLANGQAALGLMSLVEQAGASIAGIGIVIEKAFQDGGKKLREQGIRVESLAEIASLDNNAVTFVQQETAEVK

Nc1nc2c(ncn2[C@@H]2O[C@H](COP(=O)(O)O)[C@@H](OP(=O)(O)OP(=O)(O)O)[C@H]2O)c(=O)[nH]1 [pGpp, guanosine-5′-monophosphate-3′-diphosphate]
DRaCALA, 1 μM purified protein [1]: confirmed strong pGpp binding to guanosine nucleotide synthesis proteins (Hpt1, Gmk, and Xpt)
32P TLC hydrolysis time course [2]: pGpp was hydrolyzed more rapidly than (p)ppGpp
DRaCALA, 1 μM purified protein [3]: confirmed strong pGpp binding to guanosine nucleotide synthesis proteins (Hpt1, Gmk, and Xpt)
DRaCALA, 1 μM purified protein [4]: confirmed strong pGpp binding to guanosine nucleotide synthesis proteins (Hpt1, Gmk, and Xpt)

Nc1nc2c(ncn2[C@@H]2O[C@H](COP(=O)(O)OP(=O)(O)O)[C@@H](OP(=O)(O)OP(=O)(O)O)[C@H]2O)c(=O)[nH]1 [ppGpp]
Kd [5]: 60 ± 8 µM
DRaCALA, 1 μM purified protein [6]: GTPases involved in ribosome biogenesis (HflX, Obg, Der) bind ppGpp but not pGpp
32P TLC hydrolysis time course [2]: all three nucleotides can be hydrolyzed efficiently by Rel
Kd [7]: 6 ± 2 µM

Nc1nc2c(ncn2[C@@H]2O[C@H](COP(=O)(O)OP(=O)(O)OP(=O)(O)O)[C@@H](OP(=O)(O)OP(=O)(O)O)[C@H]2O)c(=O)[nH]1 [pppGpp]
Kd [5]: 296 ± 50 µM
Kd [7]: 48 ± 7 µM

B1: NahA (YvcI) (Bacillus subtilis subsp. subtilis str. 168) (protein)
chain: MTYLQRVTNCVLQTDDKVLLLQKPRRGWWVAPGGKMESGESVRDSVIREYREETGIYIINPQLKGVFTFIIKDGDHIVSEWMMFTFVADSYTGQNVSESEEGKLQWHDVNDIQNLPMAPGDGHILDFMMKGQGLLHGTFTYTPEFELLSYRLDPQHIK
K0.5 [8]: 177.4 ± 0.4 µM
kcat [8]: 10 ± 0.5 s⁻¹
Km [9]: 7.5 ± 2.3 µM
kcat [9]: 1.22 ± 0.17 s⁻¹
